Measurements: the NIST ThermoML archive (doi:10.1021/je060330k)
Numbers after ± are expanded uncertainties.

Settings: Liquid, Closed cell (Static) method

For `FCC(F)(F)F` [1,1,1,2-tetrafluoroethane], the “vapor or sublimation pressure” value (295.4 K) was 612 ± 1.3 kPa, the “vapor or sublimation pressure” value (300 K) was 704.4 ± 1.5 kPa and the “vapor or sublimation pressure” value (304 K) was 788.5 ± 1.6 kPa.
